Data: patent US8722332B2, “Macrocyclic lactone resistance marker for dirofilaria immitis” (priority 2010, dated 2014)
“Also recorded” adds a separate entry of the source. Like-named read-outs stand apart in the source and are kept apart here. Marks after values point to notes of the source that are not given here.

Legend:
mf = conditions: in vivo; cited from earlier work
D. immitis mf = tested on: D. immitis mf; design: species or system Dirofilaria immitis; conditions: in vivo
[1] = tested on: adult heartworms (D. immitis antigen); design: species or system Dirofilaria immitis; conditions: in vivo; dihydrochloride
adult heartworms = conditions: dog, in vivo

Compound	dose previously shown to kill mf (mf) [mg/kg]	Microfilariae concentration in blood (D. immitis mf; po)	Microfilariae in blood (Knott's test) (D. immitis mf; po)	Antigen test DiroChek result (+ve or −ve) [1]	Antigen test PetChek result (+ve or −ve) [1]	Antigen test SNAP result (+ve or −ve) [1]	clinical signs after adulticide (adult heartworms)	Microfilariae in blood (Knott's test) (D. immitis mf)
CC[C@H](C)[C@H]1O[C@]2(CC[C@@H]1C)C[C@@H]1C[C@@H](C/C=C(\C)[C@@H](O[C@H]3C[C@H](OC)[C@@H](O[C@H]4C[C@H](OC)[C@@H](O)[C@H](C)O4)[C@H](C)O3)[C@@H](C)/C=C/C=C3\CO[C@@H]4[C@H](O)C(C)=C[C@@H](C(=O)O1)[C@]34O)O2 [IVM, ivermectin]	0.05	≧100^b mf/ml	remained continually microfilaremic; also recorded: still microfilaremic; also recorded: Knott's test +ve^a	–	–	–	–	–
Cl.Cl.NCCS[As](SCCN)c1ccc(Nc2nc(N)nc(N)n2)cc1 [melarsomine, melarsomine dihydrochloride]	–	–	–	still negative; also recorded: DiroChek −ve^c	negative; also recorded: PetChek −ve^a	still negative; also recorded: SNAP −ve^a	transitory signs consistent with death of adult heartworms	–
milbemycin oxime [MO]	0.5	–	–	–	–	–	–	remained continually microfilaremic; also recorded: mf were still present; also recorded: Knott's test +ve^a; also recorded: Knott's test +ve^c
